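48-hour exposure; five concentrations; linearly interpolated endpoints. GI50 is the concentration that inhibits growth by half.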 Active and inactive are the calls of the source. Rule as the data show it: active = GI50 up to about 1.1 µM and inactive = higher. Where only a bound is given, the exact number is not on record here.

Experimental findings from ChEMBL document CHEMBL1201862, “PubChem BioAssay data set” (2004) are described below.

Among the test systems are 786-0; A498; CAKI-1; EKVX; NCI-H522; COLO 205; SNB-75; SN12C; UO-31; SF-295; KM12; UACC-257; HCT-116; SR; HCC 2998; CCRF-CEM; MCF7; MDA-MB-231; NCI/ADR-RES.
What all share (assay): NCI anticancer screen, dose series, 48 h

`CNS(=O)(=O)NNS(=O)(=O)c1ccccc1`: the GI50 with 786-0, in the assay with A498, in the assay with CAKI-1, in the assay with EKVX, with NCI-H522 and in the assay with COLO 205 was > 100 µM (inactive) in each case. For the same compound, the GI50 in the assay with SNB-75, with SN12C, in the assay on UO-31, with SF-295, in the assay with KM12 and in the assay with UACC-257 was > 100 µM (inactive) in each case. The GI50 in the assay on HCT-116, in the assay on SR, in the assay with HCC 2998 and with CCRF-CEM was > 100 µM (inactive) each time.

As for `C[Si](C)(C)OC1CC(=O)OC1n1cc(F)c(=O)[nH]c1=O` (centres undefined), the GI50 is 21.4 µM (inactive) with 786-0; > 100 µM (inactive) in the assay on A498; 23.9 µM (inactive) in the assay on CAKI-1; 8.18 µM (inactive) in the assay with EKVX; 19.5 µM (inactive) with NCI-H522; 21 µM (inactive) in the assay with COLO 205. For the same compound, the GI50 in the assay with SNB-75 was 65.9 µM (inactive); in the assay with SN12C, 40 µM (inactive); in the assay with UO-31 it was 13 µM (inactive); in the assay on SF-295, > 76.9 µM (inactive); in the assay with KM12, 18.1 µM (inactive); with UACC-257 it was > 64.3 µM (inactive). The GI50 in the assay on HCT-116 is 5.79 µM (inactive); in the assay on SR, 2.31 µM (inactive); in the assay with HCC 2998, 0.759 µM (active); in the assay with CCRF-CEM, 18.2 µM (inactive).

For the compound `Cc1nc2c(s/c(=N\N)n2-c2ccccc2)c(=O)n1C`, the GI50 with 786-0, with A498, in the assay on CAKI-1, in the assay with EKVX, in the assay with NCI-H522 and in the assay on COLO 205 was > 100 µM (inactive) each time. Further, the GI50 in the assay on SNB-75 is > 100 µM (inactive); with SN12C, > 100 µM (inactive); in the assay on UO-31 it was > 100 µM (inactive); in the assay on SF-295, > 100 µM (inactive); in the assay with KM12, 80.2 µM (inactive); with UACC-257, > 100 µM (inactive). The GI50 with HCT-116, in the assay with SR, in the assay with HCC 2998 and in the assay with CCRF-CEM was > 100 µM (inactive) each time.

Consider `Nc1nc(N)c2nc(CNc3ccc(C(=O)NC(CCNC(=O)c4ccccc4C(=O)O)C(=O)O)cc3)cnc2n1` (centres undefined), for which the GI50 in the assay on 786-0 is 0.01 µM (active); in the assay on A498 it was 0.054 µM (active); in the assay with CAKI-1, 0.01 µM (active); with EKVX, > 100 µM (inactive); with NCI-H522 it was 0.0897 µM (active); in the assay on SN12C, 0.01 µM (active). For the same compound, the GI50 is 0.00802 µM (active) in the assay on UO-31; 0.0718 µM (active) with SF-295; 0.0168 µM (active) in the assay on KM12; 0.01 µM (active) in the assay on MCF7; > 100 µM (inactive) with MDA-MB-231; 0.00502 µM (active) in the assay on HCT-116. For the same compound, the results for the GI50 in the assay on SR, with CCRF-CEM and with NCI/ADR-RES were 0.01 µM (active), 0.01 µM (active) and < 0.0173 µM (active), respectively.

For the compound `C=C(CCCCC)CN1CCCC1[C@@](C)(O)CC(=O)OCC` (some centres undefined), the GI50 in the assay with 786-0, with A498, with CAKI-1, in the assay with EKVX, in the assay with NCI-H522 and with COLO 205 was > 100 µM (inactive) throughout. Also, the GI50 with SNB-75, in the assay with SN12C, in the assay with UO-31, in the assay on SF-295, in the assay on KM12 and with UACC-257 was > 100 µM (inactive) each time. The GI50 in the assay on HCT-116 is > 100 µM (inactive); with SR, 71.8 µM (inactive); with HCC 2998, > 100 µM (inactive); with CCRF-CEM, > 100 µM (inactive).

On to `O=C(OCCOCCOC(=O)c1c[nH]cc1-c1ccccc1)c1c[nH]cc1-c1ccccc1`, for which the GI50 in the assay with 786-0 was 25.9 µM (inactive); in the assay with A498 it was 19.3 µM (inactive); in the assay with CAKI-1 it was 26.5 µM (inactive); in the assay on EKVX it was 26.7 µM (inactive); with NCI-H522, 15.3 µM (inactive); with COLO 205, 19.8 µM (inactive). The GI50 with SNB-75 was 17.2 µM (inactive); in the assay on SN12C, 18.1 µM (inactive); in the assay on UO-31, 14.1 µM (inactive); in the assay on SF-295, 18.4 µM (inactive); in the assay on KM12, 20.2 µM (inactive); in the assay on UACC-257, 18.7 µM (inactive). The GI50 in the assay on HCT-116 was 16 µM (inactive); with SR it was 21 µM (inactive); in the assay on HCC 2998 it was 21.9 µM (inactive); in the assay with CCRF-CEM, 23 µM (inactive).

Regarding `O=C1CCCC2=C1CC1=C(CCCC1=O)N2c1ccccc1`, the GI50 in the assay on 786-0, in the assay with A498, in the assay with CAKI-1, in the assay with EKVX, with SNB-75 and in the assay on SN12C was > 100 µM (inactive) in each case. Moreover, the GI50 with UO-31, in the assay on KM12, with MCF7, in the assay on SR, in the assay on HCC 2998 and with CCRF-CEM was > 100 µM (inactive) throughout. Moreover, the GI50 with NCI/ADR-RES is > 100 µM (inactive).

`CCN(CC)c1nc(N(C)C)c2cc(OC)ccc2n1`: the GI50 in the assay on 786-0 was 20.7 µM (inactive); in the assay on A498, 32.6 µM (inactive); with CAKI-1 it was 44.6 µM (inactive); in the assay on EKVX it was 25.1 µM (inactive); with NCI-H522, 14.6 µM (inactive); in the assay on COLO 205, 11.7 µM (inactive). For the same compound, the GI50 in the assay with SN12C was 22.2 µM (inactive); in the assay with UO-31 it was 19.3 µM (inactive); with SF-295, 26.7 µM (inactive); in the assay on KM12, 26.6 µM (inactive); in the assay on UACC-257, 24.7 µM (inactive); in the assay with MCF7, 22.2 µM (inactive). In addition, the GI50 with MDA-MB-231 is 35.5 µM (inactive); in the assay on HCT-116, 11.2 µM (inactive); in the assay with SR it was 21.9 µM (inactive); in the assay on HCC 2998, 18.5 µM (inactive); with NCI/ADR-RES, 24.1 µM (inactive).

Take `Nc1nc(N)c(-c2ccc(Cl)cc2)c(CCC(=O)Nc2cccc(C(F)(F)F)c2)n1`: the GI50 in the assay on 786-0, in the assay with A498, in the assay with CAKI-1, in the assay with EKVX, in the assay with NCI-H522 and with COLO 205 was > 100 µM (inactive) each time. Moreover, the GI50 in the assay with SNB-75, in the assay with SN12C, with UO-31, with SF-295, with KM12 and in the assay on UACC-257 was > 100 µM (inactive) in each case. Moreover, the GI50 with HCT-116, in the assay on SR, in the assay with HCC 2998 and in the assay with CCRF-CEM was > 100 µM (inactive) throughout.

Turning to `COC(=O)/C(=N\NC(C)(C)C)C(C(=O)OC)C(=O)C(=O)Nc1cc(Cl)ccc1Cl` (centres undefined), the GI50 in the assay on 786-0, in the assay with A498, in the assay on CAKI-1, in the assay with EKVX, in the assay on NCI-H522 and with COLO 205 was > 100 µM (inactive) in each case. Besides, the GI50 in the assay with SNB-75, with SN12C, in the assay with UO-31, in the assay on SF-295, in the assay on KM12 and with UACC-257 was > 100 µM (inactive) throughout. The GI50 in the assay on HCT-116, with SR, with HCC 2998 and in the assay with CCRF-CEM was > 100 µM (inactive) in each case.

`C/C1=C\[C@H](C)C[C@H](C)OC(=O)C[C@H](c2ccc(O)cc2)NC(=O)[C@H](Cc2ccc(O)c(I)c2)N(C)C(=O)[C@H](C)NC(=O)[C@@H](C)C1`: the GI50 is 0.0148 µM (active) in the assay on 786-0; 0.016 µM (active) in the assay with A498; 0.0596 µM (active) with EKVX; 0.0818 µM (active) in the assay with NCI-H522; 0.0161 µM (active) in the assay on COLO 205; 0.0354 µM (active) in the assay with SNB-75. Moreover, the GI50 in the assay with SN12C was 0.239 µM (active); in the assay on UO-31 it was 0.0535 µM (active); with SF-295 it was 0.0778 µM (active); in the assay on KM12, 0.208 µM (active); in the assay with MCF7, 0.019 µM (active); in the assay on MDA-MB-231, 0.0333 µM (active). Further, the GI50 in the assay on HCT-116 is 0.016 µM (active); in the assay with SR, 0.0968 µM (active); in the assay with CCRF-CEM, 0.00497 µM (active); in the assay on NCI/ADR-RES it was 1.11 µM (active).

As for `CCCCNC(=O)CCN(C(=O)O)S(=O)(=O)c1ccc(NC(=O)c2ccccc2)cc1`, the GI50 is 11.9 µM (inactive) with 786-0; > 100 µM (inactive) with A498; > 100 µM (inactive) in the assay with CAKI-1; > 100 µM (inactive) in the assay on EKVX; > 100 µM (inactive) with NCI-H522; 64.3 µM (inactive) with COLO 205. In addition, the GI50 in the assay with SNB-75, with SN12C, with UO-31, in the assay with SF-295, with KM12 and in the assay with UACC-257 was > 100 µM (inactive) each time. For the same compound, the GI50 in the assay with HCT-116, with SR, in the assay on HCC 2998 and with CCRF-CEM was > 100 µM (inactive) throughout.
